Assay results taken from patent US12569453B2, “Use of tapinarof for the treatment of atopic dermatitis” (Dermavant Sciences GmbH, priority 2018, dated 2026).
Marks after values point to notes of the source that are not given here.

System: adult subjects with psoriasis
Test: Phase II/2b clinical study in plaque psoriasis: efficacy and patient-reported outcomes
Type: in vivo, human
Details: for PGA response rate (primary endpoint): interim analysis; for subjects with ≥4 improvement in pruritus NRS score from baseline: baseline NRS score ≥4; for PGA response rate (PGA 0 or 1 and ≥2-grade improvement): mITT OC; for PASI50 response rate / PASI75 response rate / PASI90 response rate: Week 16; for PGA treatment success: Week 16 (4 weeks after end of treatment)
From the text: This was a multicenter (United States, Canada, and Japan), randomized, double-blind (Sponsor-unblind), vehicle-controlled, 6-arm, parallel-group, dose-finding study in adult subjects with psoriasis. Certain study personnel at each site were unblinded to dose-frequency.
The study consisted of 3 periods: up to 4 weeks Screening, 12 weeks double-blind treatment, and 4 weeks post-treatment follow-up. Study visits occurred at Screening; Baseline; weeks 1, 2, 4, 8, and 12 during the treatment period; and 2 and 4 weeks after the last application of study treatment (i.e., at weeks 14 and 16). Additional visits could occur, as needed, for early withdrawals or to follow-up on any skin reactions or ongoing AEs. A subject's total duration of study participation was approximately 16 to 20 weeks.
Two concentrations of Tapinarof cream (0.5% and 1%) and a vehicle control were evaluated following application to all psoriasis lesions (except on the scalp) once (QD) or twice daily (BID) for 12 weeks. There were no planned dose adjustments during the study.
Efficacy was assessed by using a 5-point static Physician Global Assessment (PGA) (0-4 scale), the Psoriasis Area and Severity Index (PASI), % BSA involvement, target lesion assessments (erythema, scaling, and plaque thickness), and subject-reported itch/pruritus severity using a numeric rating scale (NRS) (from the Psoriasis Symptom Diary [PSD]). Additional subject-reported outcomes included the daily PSD (which also contained severity and bother items for 3 additional symptoms). Investigator global impression of change item (assessing change in severity of psoriasis symptoms) and 2 subject global impressions of change items (assessing change in severity of psoriasis symptoms and change in severity of itch/pruritus) were also assessed.
Physician Global Assessment: The PGA is a clinical tool for assessing the current state/severity of a subject's psoriasis. It is a static 5-point morphological assessment of overall disease severity, as determined by the investigator, using the clinical characteristics of erythema, plaque thickness, and scaling as guidelines. At each specified time point, the PGA is made without reference to previous scores. Variations of the PGA are frequently used in clinical studies because it is a simple assessment that is more similar to the assessments actually used in clinical practice. Scoring system ranges from 0 (=Clear) to 4 (=Severe).
Psoriasis Area and Severity Index: The PASI scoring system is a widely-used standard clinical tool for assessing the severity of psoriasis that takes into account the overall severity of erythema (redness), thickness (induration), and scale, as well as the extent of BSA affected with psoriasis. The 3 clinical signs are each graded on a 5 point scale (0 to 4) and the % BSA affected is scored on a 7-point scale (0 to 6) for each of the 4 specified body regions (head, upper extremities, trunk, and lower extremities). The individual scores are multiplied by a weighted factor for each body region; the sum of these scores gives the overall PASI score. Higher scores indicate more severe disease. PASI is a static assessment made without reference to previous scores.
Body Surface Area: The extent of BSA affected by psoriasis is a general indicator of disease severity and was measured throughout the study. The extent of BSA to which study treatment was applied was also recorded. For the purpose of approximate clinical estimation, the total palmar surface of the palm plus 5 digits was assumed to be approximately equivalent to 1% BSA.
Target Lesion Grading: A single target lesion was selected at Baseline to assess efficacy in treating a discrete area rather than an overall average of all areas. For that lesion, the severity of erythema, scaling, and plaque thickness was assessed by the investigator on a 5-point scale ranging from “0=none” to “4=severe”. […]

## CC(C)c1c(O)cc(/C=C/c2ccccc2)cc1O [Tapinarof, 3,5-Dihydroxy-4-isopropyl-trans-stilbene]
1% BID, Early WD
  Target lesion Erythema, percent change from Baseline (Mean): −46.67%
  Target lesion Plaque thickness, percent change from Baseline (Mean): −46.67%
  Target lesion Scaling, percent change from Baseline (Mean): −52.50%
1% BID, Fitzpatrick skin type I/II
  PGA response at Week 12: 60%
1% BID, Fitzpatrick skin type III/IV
  PGA response at Week 12: 54%
1% BID, Fitzpatrick skin type V/VI
  PGA response at Week 12: 100%
1% BID, Follow-up Week 14
  Target lesion Erythema, percent change from Baseline (Mean): −65.42%
  Target lesion Plaque thickness, percent change from Baseline (Mean): −67.50%
  Target lesion Scaling, percent change from Baseline (Mean): −67.50%
1% BID, Follow-up/Week 16
  Target lesion Erythema, percent change from Baseline (Mean): −78.33%
  Target lesion Plaque thickness, percent change from Baseline (Mean): −76.67%
  Target lesion Scaling, percent change from Baseline (Mean): −77.50%
1% BID, Week 1
  Target lesion Erythema, percent change from Baseline (Mean): −12.50%
  Target lesion Plaque thickness, percent change from Baseline (Mean): −18.75%
  Target lesion Scaling, percent change from Baseline (Mean): −25.00%
1% BID, Week 2
  Target lesion Erythema, percent change from Baseline (Mean): −25.52%
  Target lesion Plaque thickness, percent change from Baseline (Mean): −33.33%
  Target lesion Scaling, percent change from Baseline (Mean): −32.55%
1% BID, Week 4
  Target lesion Erythema, percent change from Baseline (Mean): −44.94%
  Target lesion Plaque thickness, percent change from Baseline (Mean): −48.51%
  Target lesion Scaling, percent change from Baseline (Mean): −55.65%
1% BID, Week 8
  Target lesion Erythema, percent change from Baseline (Mean): −62.50%
  Target lesion Plaque thickness, percent change from Baseline (Mean): −62.82%
  Target lesion Scaling, percent change from Baseline (Mean): −70.51%
  PGA response rate (primary endpoint): 42%
1% BID, Week 12
  Mean change in nine items of the PSD from baseline: −4.5^‡
  Mean change in total target lesion grading scores from baseline: −6.9*
  Target lesion Erythema, percent change from Baseline (Mean): −77.65%
  Target lesion Plaque thickness, percent change from Baseline (Mean): −81.82%
  Target lesion Scaling, percent change from Baseline (Mean): −78.79%
  absolute mean change in percent BSA affected from baseline: 4.9
  decrease in total target lesion grading scores (mean change): 6.9
  subjects with ≥4 improvement in pruritus NRS score from baseline: 55%
  PGA response rate (PGA 0 or 1 and ≥2-grade improvement): 65%
1% BID
  PASI50 response rate: 83%
  PASI75 response rate: 63%
  PASI90 response rate: 38%
  PGA treatment success: 58%
1% BID, baseline to Week 12
  subjects with severity of pruritus symptoms rated very/moderately improved: 70%
1% BID, psoriasis duration 5 years to <10 years
  PGA response at Week 12: 67%
1% BID, psoriasis duration 6 months to <5 years
  PGA response at Week 12: 50%
1% BID, psoriasis duration ≥10 years
  PGA response at Week 12: 73%
1% BID, ≥10% BSA affected at baseline
  PGA response at Week 12: 64%
1% QD
  PASI75 responders who maintained response from Week 12 to Week 16: 93%
  PGA responders who maintained response from Week 12 to Week 16: 86%
  PASI50 response rate: 77%
  PASI75 response rate: 58%
  PASI90 response rate: 42%
  PGA treatment success: 54%
1% QD-vehicle QD, Week 12
  difference in PGA response rate, active minus vehicle: 51.0%
1% QD, 1 to <10% BSA affected at baseline
  PGA response at Week 12: 60%
1% QD, Early WD
  Target lesion Erythema, percent change from Baseline (Mean): −47.62%
  Target lesion Plaque thickness, percent change from Baseline (Mean): −60.71%
  Target lesion Scaling, percent change from Baseline (Mean): −57.14%
1% QD, Fitzpatrick skin type I/II
  PGA response at Week 12: 67%
1% QD, Fitzpatrick skin type III/IV
  PGA response at Week 12: 47%
1% QD, Fitzpatrick skin type V/VI
  PGA response at Week 12: 75%
1% QD, Follow-up Week 14
  Target lesion Erythema, percent change from Baseline (Mean): −70.65%
  Target lesion Plaque thickness, percent change from Baseline (Mean): −70.29%
  Target lesion Scaling, percent change from Baseline (Mean): −67.39%
1% QD, Follow-up/Week 16
  Target lesion Erythema, percent change from Baseline (Mean): −74.24%
  Target lesion Plaque thickness, percent change from Baseline (Mean): −65.91%
  Target lesion Scaling, percent change from Baseline (Mean): −71.59%
1% QD, Week 1
  Target lesion Erythema, percent change from Baseline (Mean): −17.14%
  Target lesion Plaque thickness, percent change from Baseline (Mean): −13.10%
  Target lesion Scaling, percent change from Baseline (Mean): −24.29%
1% QD, Week 2
  Target lesion Erythema, percent change from Baseline (Mean): −35.68%
  Target lesion Plaque thickness, percent change from Baseline (Mean): −30.47%
  Target lesion Scaling, percent change from Baseline (Mean): −32.81%
1% QD, Week 4
  Target lesion Erythema, percent change from Baseline (Mean): −51.88%
  Target lesion Plaque thickness, percent change from Baseline (Mean): −47.04%
  Target lesion Scaling, percent change from Baseline (Mean): −53.49%
1% QD, Week 8
  Target lesion Erythema, percent change from Baseline (Mean): −65.06%
  Target lesion Plaque thickness, percent change from Baseline (Mean): −60.90%
  Target lesion Scaling, percent change from Baseline (Mean): −71.79%
  PGA response rate (primary endpoint): 32%
1% QD, Week 12
  Mean change in nine items of the PSD from baseline: −4.0^†
  Mean change in total target lesion grading scores from baseline: −7.0*
  Target lesion Erythema, percent change from Baseline (Mean): −81.88%
  Target lesion Plaque thickness, percent change from Baseline (Mean): −70.29%
  Target lesion Scaling, percent change from Baseline (Mean): −83.33%
  absolute mean change in percent BSA affected from baseline: 4.3
  decrease in total target lesion grading scores (mean change): 7.0
  subjects with ≥4 improvement in pruritus NRS score from baseline: 73%
  PGA response rate (PGA 0 or 1 and ≥2-grade improvement): 56%
1% QD, psoriasis duration 5 years to <10 years
  PGA response at Week 12: 50%
1% QD, psoriasis duration 6 months to <5 years
  PGA response at Week 12: 80%
1% QD, psoriasis duration ≥10 years
  PGA response at Week 12: 50%
1% QD, ≥10% BSA affected at baseline
  PGA response at Week 12: 40%
1% and 0.5% concentration groups, Week 12
  subjects rating itch symptoms very improved or moderately improved: 70-77%
1% concentration groups, Week 12
  subjects rated by investigators as very improved or moderately improved: > 80%
1% groups, Week 12
  subjects rating pruritus symptoms very improved or moderately improved: 70-76%
